Laboratory results published in patent US6855730B2, “3-methylidenyl-2-indolinone modulators of protein kinase” (Sugen, Inc., priority 1998, dated 2005).

These compounds were tested against T1, 3T3 cell line genetically engineered to express human EGF-R (Homo sapiens, UniProt P00533) (assay: EGF-induced BrdU incorporation assay). Conditions: read-out: BrdU EGF driven IC50.
T1 construct: expressed in transfected cells; host or cells: 3T3
Assay type: cell-based
Experimental: The cellular/catalytic assays described herein are performed in an ELISA format. The general procedure is as follows: a compound is introduced to cells expressing the test kinase, either naturally or recombinantly, for a selected period of time after which, if the test kinase is a receptor, a ligand known to activate the receptor is added. The cells are lysed and the lysate is transferred to the wells of an ELISA plate previously coated with a specific antibody recognizing the substrate of the enzymatic phosphorylation reaction. Non-substrate components of the cell lysate are washed away and the amount of phosphorylation on the substrate is detected with an antibody specifically recognizing phosphotyrosine compared with control cells that were not contacted with a test compound. The cellular/biologic assays described herein measure the amount of DNA made in response to activation of a test kinase, which is a general measure of a proliferative response. The general procedure for this assay is as follows: a compound is introduced to cells expressing the test kinase, either naturally or recombinantly, for a selected period of time after which, if the test kinase is a receptor, a ligand known to activate the receptor is added. After incubation at least overnight, a DNA labeling reagent such as Bromodeoxyuridine (BrdU) or 3H-thymidine is added. The amount of labeled DNA is detected with either an anti-BrdU antibody or by measuring radioactivity and is compared to control cells not contacted with a test compound. […]
Protocol • (1) Cells are seeded at 8000 cells/well in 10% CS, 2mM Gin in DMEM, in a 96 well plate. Cells are incubated overnight at 37° C. in 5% CO2. • (2) After 24 hours, the cells are washed with PBS, and then are serum starved in serum free medium (0% CS DMEM with 0.1% BSA) for 24 hours. • (3) On day 3, ligand (EGF, 2 nM, prepared in DMEM with 0.1% BSA) and test compounds are added to the cells simultaneously. The negative control wells receive serum free DMEM with 0.1% BSA only, the positive control cells receive the ligand (EGF) but no test compound. Test compounds are prepared in serum free DMEM with ligand in a 96 well plate, and serially diluted for 7 test concentrations. • (4) After 20 hours of ligand activation, diluted BrdU labeling reagent (1:100 in DMEM, 0.1% BSA) is added and the cells are incubated with BrdU (final concentration=10 μM) for 1.5 hours. • (5) After incubation with labeling reagent, the medium is removed by decanting and tapping the inverted plate on a paper towel. FixDenat solution is added (50 μl/well) and the plates are incubated at room temperature for 45 minutes on a plate shaker. • (6) The FixDenat solution is thoroughly removed by decanting and tapping the inverted plate on a paper towel. Milk is added (5% dehydrated milk in PBS, 200 μl/well) as a blocking solution and the plate is incubated for 30 minutes at room temperature on a plate shaker. • (7) The blocking solution is removed by decanting and the wells are washed once with PBS. Anti-BrdU-POD solution (1:100 dilution in PBS, 1% BSA) is added (100 μ/well) and the plate is incubated for 90 minutes at room temperature on a plate shaker. • (8) The antibody conjugate is thoroughly removed by decanting and rinsing the wells 5 times with PBS, and the plate is dried by inverting and tapping on a paper towel. • (9) TMB substrate solution is added (100 μl/well) and incubated for 20 minutes at room temperature on a plate shaker until color development is sufficient for photometric detection. • (10) The absorbance of the samples are measured at 410 nm (in “dual wavelength” mode with a filter reading at 490 nm, as a reference wavelength) on a Dynatech ELISA plate reader.
With `COc1ccc(C=C2C(=O)Nc3cc(NC(C)=O)ccc32)cc1-c1cccc(NC(C)=O)c1` (mixture of isomers) [Example 63, N-[3-(3′-Acetylamino-6-methoxybiphenyl-3-ylmethylene)-2-oxo-2,3-dihydro-1H-indol-6-yl]-acetamide] the IC50 was 30.5 µM.
For `CC1(C)CCc2cc(C=C3C(=O)Nc4ccc(Br)cc43)ccc2O1` (racemic) [Example 34, 5-Bromo-3-(2,2-dimethylchroman-6-ylmethylene)-1,3-dihydroindol-2-one], the IC50 was 11 µM.
With `COc1c(C(C)C)cc(/C=C2/C(=O)Nc3cc(NC(C)=O)ccc32)cc1C(C)C` [Example 3, N-[3-(3,5-Diisopropyl-4-methoxybenzylidene)-2-oxo-2,3-dihydro-1H-indol-6-yl]-acetamide] the IC50 was 11 µM.
In the case of `COc1c(C(C)C)cc(/C=C2/C(=O)Nc3cc(O)ccc32)cc1C(C)C` [Example 4, 3-(3,5-Diisopropyl-4-methoxybenzylidene)-6-hydroxy-1,3-dihydroindol-2-one], the IC50 is reported as 26.6 µM.
`COc1c(C(C)C)cc(/C=C2/C(=O)Nc3ccc(C(C)=O)cc32)cc1C(C)C` [Example 5, 5-Acetyl-3-(3,5-diisopropyl-4-methoxybenzylidene)-1,3dihydroindol-2-one] showed an IC50 of 7.2 µM.
For `COC(=O)c1ccc2c(c1)/C(=C\c1cc(C(C)C)c(OC)c(C(C)C)c1)C(=O)N2` [Example 6, 3-(3,5-Diisopropyl-4-methoxybenzylidene)-2-oxo-2,3-dihydro-1H-indole-5-carboxylic acid methyl ester], the IC50 was 12 µM.
For `COc1ccc(/C=C2/C(=O)Nc3ccccc32)cc1C(C)C` [Example 7, 3-(3-Isopropyl-4-methoxybenzylidene)-1,3-dihydroindol-2-one], the IC50 was 24.5 µM.
For `COc1cc(C)c(C=C2C(=O)Nc3ccccc32)cc1C(C)C` [Example 8, 3-(5-Isopropyl-4-methoxy-2-methylbenzylidene)-1,3-dihydroindol-2-one], the IC50 was > 50 µM.
Compound `COc1cc(C)c(C=C2C(=O)Nc3ccc(Cl)cc32)cc1C(C)C` [Example 9, 5-Chloro-3-(5-isopropyl-4-methoxy-2-methylbenzylidene)-1,3-dihydroindol-2-one] has an IC50 of 11 µM.
`COc1ccc(/C=C2/C(=O)Nc3ccccc32)cc1C1CCCC1` [Example 10, 3-(3-Cyclopentyl-4-methoxybenzylidene)-1,3-dihydroindol-2-one] was tested, and the IC50 was 29 µM.
`COc1ccc(/C=C2/C(=O)Nc3ccc(F)cc32)cc1C1CCCC1` [Example 11, 3-(3-Cyclopentyl-4-methoxybenzylidene)-5-fluoro-1,3-dihydroindol-2-one] showed an IC50 of 23.3 µM.
Compound `COc1ccc(/C=C2/C(=O)Nc3ccccc32)cc1C1CCCCC1` [Example 12, 3-(3-Cyclohexyl-4-methoxybenzylidene)-1,3-dihydroindol-2-one] has an IC50 of 30.6 µM.
Compound `COc1ccc(/C=C2/C(=O)Nc3ccc(Br)cc32)cc1-c1ccccc1` [Example 13, 5-Bromo-3-(6-methoxybiphenyl-3-ylmethylene)-1,3-dihydroindol-2-one] has an IC50 of 26.6 µM.
Work on `CC1(C)CCc2cc(/C=C3/C(=O)Nc4ccc(Cl)cc43)ccc2O1` [Example 15, 5-Chloro-3-(2,2-dimethyl-chroman-6-ylmethylene)-1,3-dihydroindol-2-one] yielded an IC50 of 7.8 µM.
`CC(=O)Nc1ccc2c(c1)NC(=O)/C2=C/c1ccc(OCCN2CCOCC2)c(C2CCCCC2)c1` [Example 16, N-{3-[3-Cyclohexyl-4-(2-morpholin-4-ylethoxy)-benzylidene]-2-oxo-2,3-dihydro-1H-indol-6-yl}-acetamide] was tested, and the IC50 was 6.4 µM.
`COc1ccc2c(c1)/C(=C\c1cc(C(C)C)c(OC)c(C(C)C)c1)C(=O)N2` [Example 17, 3-(3,5-Diisopropyl-4-methoxybenzylidene)-5-methoxy-1,3-dihydroindol-2-one] was tested, and the IC50 was 7.4 µM.
`COc1ccc(/C=C2/C(=O)Nc3cc(NC(C)=O)ccc32)cc1-c1ccsc1` [Example 18, N-[3-(4-Methoxy-3-thiophene-3-ylbenzylidene)-2-oxo-2,3-dihydro-1H-indol-6-yl]-acetamide] was tested, and the IC50 was > 50 µM.
`COc1c(C(C)C)cc(/C=C2/C(=O)Nc3ccc(C)cc32)cc1C(C)C` [Example 19, 3-(3,5-Diisopropyl-4-methoxybenzylidene)-5-methyl-1,3-dihydroindol-2-one] showed an IC50 of 9.3 µM.
`COc1c(C(C)C)cc(/C=C2/C(=O)Nc3ccc(N)cc32)cc1C(C)C` [Example 20, 5-Amino-3-(3,5-diisopropyl-4-methoxy-benzylidene)-1,3-dihydroindol-2-one] was tested, and the IC50 was 30 µM.
Compound `COc1c(C)cc(/C=C2/C(=O)Nc3ccc(Cl)cc32)cc1C` [Example 21, 5-Chloro-3-(4-methoxy-3,5-dimethylbenzylidene)-1,3-dihydroindol-2-one] has an IC50 of 8 µM.
For `CC1(C)CCc2cc(/C=C3/C(=O)Nc4ccc(F)cc43)ccc2O1` [Example 23, 3-(2,2-Dimethylchroman-6-ylmethylene)-5-fluoro-1,3-dihydroindol-2-one], the IC50 was 32.9 µM.
With `CC(C)c1cc(/C=C2/C(=O)Nc3ccc(Cl)cc32)cc(C(C)C)c1OCCN1CCOCC1` [Example 24, 5-chloro-3-[3,5-diisopropyl-4-(2-morpholin-4-ylethoxy)-benzylidene]-1,3-dihydroindol-2-one] the IC50 was 7.5 µM.
For `COc1ccc(/C=C2/C(=O)Nc3ccc(CCN4CCOCC4)cc32)cc1-c1ccsc1` [Example 26, 3-(4-Methoxy-3-thiophen-3-ylbenzylidene)-5-(2-morpholin-4-yl-ethyl)-1,3-dihydroindol-2-one], the IC50 was > 50 µM.
With `COc1cc(C)c(C=C2C(=O)Nc3cc(NC(C)=O)ccc32)cc1C(C)C` [Example 27, N-[3-(5-Isopropyl-4-methoxy-2-methyl-benzylidene)-2-oxo-2,3-dihydro-1H-indol-6-yl]-acetamide] the IC50 was 26.8 µM.
`COc1ccc(C=C2C(=O)Nc3ccccc32)cc1-c1cccc(NC(C)=O)c1` [Example 29, N-[2′-Methoxy-5′-(2-oxo-1,2-dihydroindol-3-ylidenemethyl)-biphenyl-3-yl]-acetamide] gave an IC50 of 15.2 µM.
In the case of `COc1cc(C)c(/C=C2/C(=O)Nc3ccc(F)cc32)cc1C(C)C` [Example 30, 5-Fluoro-3-(5-isopropyl-4-methoxy-2-methyl-benzylidene)-1,3-dihydroindol-2-one], the IC50 is reported as 30.3 µM.
With `COc1ccc(/C=C2/C(=O)Nc3cc(NC(C)=O)ccc32)cc1-c1cccs1` [Example 31, N-[3-(4-Methoxy-3-thiophen-2-ylbenzylidene)-2-oxo-2,3-dihydro-1H-indol-6-yl]-acetamide] the IC50 was 38.6 µM.
With `COc1ccc(/C=C2/C(=O)Nc3ccccc32)cc1-c1ccsc1` [Example 35, 3-(4-Methoxy-3-thiophen-3-ylbenzylidene)-1,3-dihydroindol-2-one] the IC50 was 28.1 µM.
In the case of `COc1cc(C)c(/C=C2/C(=O)Nc3ccc(Br)cc32)cc1C(C)C` [Example 36, 5-Bromo-3-(5-isopropyl-4-methoxy-2-methyl-benzylidene)-1,3-dihydroindol-2-one], the IC50 is reported as 31 µM.
In the case of `COc1cc(/C=C2/C(=O)Nc3ccccc32)c(-c2cccs2)cc1OC` [Example 39, 3-(4,5-Dimethoxy-2-thiophen-2-ylbenzylidene)-1,3-dihydroindol-2-one], the IC50 is reported as 16.2 µM.
With `CC(=O)Nc1ccc2c(c1)NC(=O)/C2=C/c1ccc(OCCN2CCOCC2)c(-c2cccs2)c1` [Example 40, N-{3-[4-(2-Morpholin-4-ylethoxy)-3-thiophen-2-ylbenzylidene]-2-oxo-2,3-dihydro-1H-indol-6-yl}-acetamide] the IC50 was 28.6 µM.
With `COc1cc(C)c(/C=C2/C(=O)Nc3ncccc32)cc1C(C)C` [Example 45, 3-(5-Isopropyl-4-methoxy-2-methylbenzylidene)-1,3-dihydro-pyrrolo[2,3-b]pyridin-2-one] the IC50 was > 50 µM.
With `CCOc1cccc(-c2cc(C=C3C(=O)Nc4ccccc43)ccc2OC)c1` [Example 46, 3-(3′-Ethoxy-6-methoxybiphenyl-3-ylmethylene)-1,3-dihydroindol-2-one] the IC50 was 45.7 µM.
